Measurements from patent US9801872B2, “Pyridinyl and fused pyridinyl triazolone derivatives” (Takeda Pharmaceutical Company Limited, priority 2013, dated 2017).

Each molecule was assayed against human BTK (Homo sapiens (Human), UniProt Q06187) (assay: BTK inhibition: BTK-mediated phosphorylation of FAM-labeled substrate 5-FAM-[…]-NH2 (Caliper LC-3000)). Conditions: read-out: BTK Inhibition (pIC50) (converted).
Assay type: biochemical
From the text: The activity of compounds as BTK inhibitors may be determined by a variety of methods, including in vitro and in vivo methods.
This construct engineers an in-frame translational fusion with the Glutathione-S-Transferase (GST) protein for use in affinity purification. The fusion protein derived from this construct contains a protease recognition sequence to liberate the BTK from the GST affinity tag. High-titer baculoviral stocks, generated using the Bac-to-Bac® system (Invitrogen), are used to express the recombinant protein in Spodoptera frugiperda Sf9 cells in 10 L Wave bags. Recombinant proteins are isolated from cellular extracts by passage over Glutathione Sepharose 4B (GE Healthcare) and the BTK moiety is released from the GST affinity tag by treatment with PreScission protease. The BTK recombinant protein is further purified by size exclusion chromatography (HiLoad 16/60 Superdex 200, GE Healthcare) in a buffer containing 20 mM Hepes (pH 7.4), 50 mM NaCl, 10 mM MgCl2, 0.25 mM TCEP and 0.1 mM EDTA. The purity of the fractions is assessed by SDS PAGE and the peak protein fractions are pooled and concentrated using Amicon Ultra-15 Centrifugal Filter Devices (Millipore).
The inhibitory properties of compounds relative to BTK is determined using a black 384-well-plate format in a buffer which contains 50 mM Hepes, 10 mM NaCl, 10 mM MgCl2, 0.2 mM EDTA, 0.01% Brij35®, 1 mM DTT, and 0.1 mg/mL BSA at pH 7.3. The test compound is prepared in DMSO using 2-fold serial dilutions for 11 data points, which are added to the buffer so that each dilution contains 3% DMSO. […] The reaction mixtures are incubated at room temperature for 60 minutes and then quenched by adding 25 μL of 50 mM EDTA. To quantify the fluorescent-labeled substrate and product following reaction, the test plate is loaded on a Caliper LC-3000, which measures percent of conversion by microfluidic-based separation.
The compounds were tested in accordance with the assay described on page 42 of the specification.

Sequence of human BTK (Q06187 382-659): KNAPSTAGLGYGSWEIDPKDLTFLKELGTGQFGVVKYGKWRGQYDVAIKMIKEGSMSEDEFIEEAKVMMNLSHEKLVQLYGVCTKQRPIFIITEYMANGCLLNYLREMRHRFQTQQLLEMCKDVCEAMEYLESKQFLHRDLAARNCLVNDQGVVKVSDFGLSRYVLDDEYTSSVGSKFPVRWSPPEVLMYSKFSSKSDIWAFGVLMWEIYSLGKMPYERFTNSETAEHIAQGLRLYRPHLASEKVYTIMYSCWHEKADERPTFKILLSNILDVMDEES

SMILES	IC50 [nM]
C=CC(=O)N1C[C@H](Oc2nc(-c3n[nH]c(=O)[nH]3)cc3ccccc23)[C@@H](C)C1 (racemic) [Example 19, 3-(1-(((3R,4S)-1-acryloyl-4-methylpyrrolidin-3-yl)oxy)isoquinolin-3-yl)-1H-1,2,4-triazol-5(4H)-one and 3-(1-(((3S,4R)-1-acryloyl-4-methylpyrrolidin-3-yl)oxy)isoquinolin-3-yl)-1H-1,2,4-triazol-5(4H)-one (mixture of enantiomers)]	< 6.31

Same assay, conditions: residues 382 to 659 of human BTK; 60 minutes at room temperature; pIC50 = -log(IC50), IC50 molar

BTK Inhibition (pIC50)	SMILES
6.5	C/C=C/C(=O)N1CC[C@@H](Oc2nc(-c3n[nH]c(=O)[nH]3)cc3ccccc23)C1 [Example 3, (R,E)-3-(1-((1-(but-2-enoyl)pyrrolidin-3-yl)oxy)isoquinolin-3-yl)-1H-1,2,4-triazol-5(4H)-one]
7.1	C=CC(=O)N1CC[C@@H](Oc2nc(-c3n[nH]c(=O)[nH]3)cc3ccccc23)C1 [Example 2, (R)-3-(1-((1-acryloylpyrrolidin-3-yl)oxy)isoquinolin-3-yl)-1H-1,2,4-triazol-5(4H)-one]
>7.9	C=CC(=O)N1CCC[C@@H]1COc1nc(-c2n[nH]c(=O)[nH]2)cc2ccccc12 [Example 9, (R)-3-(1-((1-acryloylpyrrolidin-2-yl)methoxy)isoquinolin-3-yl)-1H-1,2,4-triazol-5(4H)-one]
6.9	C=CC(=O)N1C[C@@H](C)[C@H](Oc2nc(-c3n[nH]c(=O)[nH]3)cc3ccccc23)C1 [Example 21, 3-(1-(((3S,4R)-1-acryloyl-4-methylpyrrolidin-3-yl)oxy)isoquinolin-3-yl)-1H-1,2,4-triazol-5(4H)-one]
>8.7	C=CC(=O)N1CC[C@H](Oc2nc(-c3n[nH]c(=O)[nH]3)cc3ccccc23)C1 [Example 5, (S)-3-(1-((1-acryloylpyrrolidin-3-yl)oxy)isoquinolin-3-yl)-1H-1,2,4-triazol-5(4H)-one]
7.5	C=CC(=O)N1CCC[C@H](Oc2nc(-c3n[nH]c(=O)[nH]3)cc3ccccc23)C1 [Example 35, (S)-5-(1-((1-acryloylpiperidin-3-yl)oxy)isoquinolin-3-yl)-2,4-dihydro-3H-1,2,4-triazol-3-one]
8.5	C=CC(=O)N1CC[C@H](N(C)c2nc(-c3n[nH]c(=O)[nH]3)cc3ccccc23)C1 [Example 11, (S)-3-(1-((1-acryloylpyrrolidin-3-yl)(methyl)amino)isoquinolin-3-yl)-1H-1,2,4-triazol-5(4H)-one]
>8.6	C=CC(=O)N1CC[C@H](Nc2nc(-c3n[nH]c(=O)[nH]3)cc3ccccc23)C1 [Example 8, (S)-3-(1-((1-acryloylpyrrolidin-3-yl)amino)isoquinolin-3-yl)-1H-1,2,4-triazol-5(4H)-one]
>8.6	C=CC(=O)N1C[C@H](Oc2nc(-c3n[nH]c(=O)[nH]3)cc3ccccc23)[C@@H](C)C1 [Example 20, 3-(1-(((3R,4S)-1-acryloyl-4-methylpyrrolidin-3-yl)oxy)isoquinolin-3-yl)-1H-1,2,4-triazol-5(4H)-one]
>8.2	O=C(CCl)N1CC[C@H](Oc2nc(-c3n[nH]c(=O)[nH]3)cc3ccccc23)C1 [Example 33, (S)-5-(1-((1-(2-chloroacetyl)pyrrolidin-3-yl)oxy)isoquinolin-3-yl)-2,4-dihydro-3H-1,2,4-triazol-3-one]

Continued, molecule first:

SMILES	BTK Inhibition (pIC50)
C=CC(=O)N1CCC[C@H]1CNc1nc(-c2n[nH]c(=O)[nH]2)cc2ccccc12 [Example 6, (S)-3-(1-(((1-acryloylpyrrolidin-2-yl)methyl)amino)isoquinolin-3-yl)-1H-1,2,4-triazol-5(4H)-one]	8.0
C=CC(=O)N1CC[C@H](Nc2nc(-c3n[nH]c(=O)[nH]3)cc3cccc(Cl)c23)C1 [Example 28, (S)-3-(1-((1-acryloylpyrrolidin-3-yl)amino)-8-chloroisoquinolin-3-yl)-1H-1,2,4-triazol-5(4H)-one]	>8.6
C=C(C)C(=O)N1CC[C@@H](Oc2nc(-c3n[nH]c(=O)[nH]3)cc3ccccc23)C1 [Example 1, (R)-3-(1-((1-methacryloylpyrrolidin-3-yl)oxy)isoquinolin-3-yl)-1H-1,2,4-triazol-5(4H)-one]	6.7
C=CC(=O)N1CC[C@H](Nc2nc(-c3n[nH]c(=O)[nH]3)cc3cccc(OC)c23)C1 [Example 29, (S)-3-(1-((1-acryloylpyrrolidin-3-yl)amino)-8-methoxyisoquinolin-3-yl)-1H-1,2,4-triazol-5(4H)-one]	>8.6
C/C=C/C(=O)N1CC[C@H](Nc2nc(-c3n[nH]c(=O)[nH]3)cc3ccccc23)C1 [Example 15, (S,E)-3-(1-((1-(but-2-enoyl)pyrrolidin-3-yl)amino)isoquinolin-3-yl)-1H-1,2,4-triazol-5(4H)-one]	7.6
C=CC(=O)N1CC[C@H](Nc2nc(-c3n[nH]c(=O)[nH]3)cc3ccc(F)cc23)C1 [Example 25, (S)-3-(1-((1-acryloylpyrrolidin-3-yl)amino)-7-fluoroisoquinolin-3-yl)-1H-1,2,4-triazol-5(4H)-one]	>8.6
C=CC(=O)N1CC[C@H](Nc2nc(-c3n[nH]c(=O)[nH]3)cc3cccc(F)c23)C1 [Example 23, (S)-3-(1-((1-acryloylpyrrolidin-3-yl)amino)-8-fluoroisoquinolin-3-yl)-1H-1,2,4-triazol-5(4H)-one]	>8.9
C=CC(=O)N1CC[C@H](OCc2nc(-c3n[nH]c(=O)[nH]3)cc3ccccc23)C1 [Example 13, (S)-3-(1-(((1-acryloylpyrrolidin-3-yl)oxy)methyl)isoquinolin-3-yl)-1H-1,2,4-triazol-5(4H)-one]	>8.0
C=CC(=O)N1CC[C@H](Oc2nc(-c3n[nH]c(=O)[nH]3)cc3cccc(Cl)c23)C1 [Example 27, (S)-3-(1-((1-acryloylpyrrolidin-3-yl)oxy)-8-chloroisoquinolin-3-yl) -1H-1,2,4-triazol-5(4H)-one]	>8.9
C=CC(=O)N1CC[C@H](Oc2cc(C)cc(-c3n[nH]c(=O)[nH]3)n2)C1 [Example 30, (S)-3-(6-((1-acryloylpyrrolidin-3-yl)oxy)-4-methylpyridin-2-yl)-1H-1,2,4-triazol-5(4H)-one]	>8.6
C=CC(=O)N1CC[C@H](Nc2nc(-c3n[nH]c(=O)[nH]3)cc3cccnc23)C1 [Example 17, (S)-3-(8-((1-acryloylpyrrolidin-3-yl)amino)-1,7-naphthyridin-6-yl)-1H-1,2,4-triazol-5(4H)-one]	>8.6
C=CC(=O)N1CC[C@H](Oc2nc(-c3n[nH]c(=O)[nH]3)cc3ccc(F)cc23)C1 [Example 18, (S)-3-(1-((1-acryloylpyrrolidin-3-yl)oxy)-7-fluoroisoquinolin-3-yl)-1H-1,2,4-triazol-5(4H)-one]	>8.2
C=C(C)C(=O)N1CC[C@H](Nc2nc(-c3n[nH]c(=O)[nH]3)cc3ccccc23)C1 [Example 10, (S)-3-(1-((1-methacryloylpyrrolidin-3-yl)amino)isoquinolin-3-yl)-1H-1,2,4-triazol-5(4H)-one]	7.5
C=CC(=O)NC1CCN(c2nc(-c3n[nH]c(=O)[nH]3)cc3ccccc23)C1 (stereo not drawn) [Example 4, N-(1-(3-(5-oxo-4,5-dihydro-1H-1,2,4-triazol-3-yl)isoquinolin-1-yl)pyrrolidin-3-yl)acrylamide]	>8.1
C=CC(=O)N1CC[C@H](Oc2nc(-c3n[nH]c(=O)[nH]3)cc3cccnc23)C1 [Example 16, (S)-3-(8-((1-acryloylpyrrolidin-3-yl)oxy)-1,7-naphthyridin-6-yl)-1H-1,2,4-triazol-5(4H)-one]	>8.5
C=CC(=O)N1CC[C@H](Oc2cccc(-c3n[nH]c(=O)[nH]3)n2)C1 [Example 31, (S)-3-(6-((1-acryloylpyrrolidin-3-yl)oxy)pyridin-2-yl)-1H-1,2,4-triazol-5(4H)-one]	7.2
C=CC(=O)N1CC[C@H](Oc2nc(-c3n[nH]c(=O)[nH]3)ccc2C)C1 [Example 32, (S)-3-(6-((1-acryloylpyrrolidin-3-yl)oxy)-5-methylpyridin-2-yl)-1H-1,2,4-triazol-5(4H)-one]	8.3
C=CC(=O)N1CC[C@H](Nc2nc(-c3n[nH]c(=O)[nH]3)cc3ccc(Cl)cc23)C1 [Example 26, (S)-3-(1-((1-acryloylpyrrolidin-3-yl)amino)-7-chloroisoquinolin-3-yl)-1H-1,2,4-triazol-5 (4H)-one]	>8.6
C=C(C)C(=O)N1CC[C@H](Oc2nc(-c3n[nH]c(=O)[nH]3)cc3ccccc23)C1 [Example 12, (S)-3-(1-((1-methacryloylpyrrolidin-3-yl)oxy)isoquinolin-3-yl)-1H-1,2,4-triazol-5(4H)-one]	6.9
